The values below come from US20220389500A1, “PURIFYING AND POLYMERIZING 3'-BLOCKED NUCLEOTIDES” (ILLUMINA, INC., priority 2021, published 2022).

What all share (format): biochemical
For series [1], the system named is 3′-OH nucleotides. As to the kind of experiment: Purification (polishing) of heated 3′-blocked nucleotides with Klenow polymerase and different templates, then 2×151 cycle sequencing on MINISEQ (FIG. 8). Particulars: Klenow polymerase, 30 minutes at 37° C., nucleotides heated 5 hours at 55° C. Here is the method: FIG. 8 is a plot of phasing and prephasing during polymerization of 3′-blocked nucleotides that were purified using different conditions. More specifically, an aqueous solution of 3′-blocked nucleotides blocked with azidomethyl groups was heated for 5 hours at 55° C. so as to simulate nucleotide stress conditions and convert a portion of the 3′-blocked nucleotides to 3′-OH nucleotides. The resulting aqueous mixture of 3′-blocked nucleotides and 3′-OH nucleotides was purified for 30 minutes at 37° C. in a manner such as described with reference to FIGS. 1A-1B and 3, using the Klenow polymerase and different conditions, e.g., different templates, and different concentrations of templates, such as described further below. The purified 3′-blocked nucleotides then were used in a sequencing reaction, using 2×151 cycle runs on the MINISEQ® sequencing-by-synthesis instrument (Ilumina, Inc., San Diego Calif.) using the PhiX library as templates. The purified nucleotides behaved similarly in the two sequencing reads (R1 and R2). The accumulated prephasing over 150 cycles of read 1 (R1 C150% prephasing weight) and the accumulated phasing over 150 cycles of read 1 (R1 C150% phasing weight) after 3′-blocked nucleotide polymerization was measured for the purified 3′-blocked nucleotides, as well as for heated and unpurified 3′-blocked nucleotides and for unheated 3′-blocked nucleotides.
The effect of concentration of a first example template was determined. More specifically, the next data points to the right (“50 nM”) correspond to polymerization of 3′-blocked nucleotides that had been heated as indicated above and were purified using 50 nM of a 20N template of sequence 5′-NNNNNNNNNNNNNNNNNNNNCGGCCATATAACTGGTAGCTT-3′ (SEQ ID NO: 5), whereN are degenerated bases, combined in equimolar amount with a primer oligonucleotide sequence AAGCTACCAGTTATATGGCCG (SEQ ID NO: 6). […] From a comparison of the data points corresponding to different concentrations of the 20N template, it may be understood that with increased concentration of 20N template, prephasing approached a similar prephasing as for the unheated (“std”) 3′-blocked nucleotides.
Different templates were used to determine their effect on phasing and prephasing. More specifically, the next data points to the right (“4N”) correspond to polymerization of 3′-blocked nucleotides that had been heated as indicated above and were purified using 200 nM of a 4N template of sequence 5′-NNN NCGGC CAT ATA ACT GGT AGCTT-3′ (SEQ ID NO: 7) where N are degenerated bases, combined in equimolar amount with primer oligonucleotide sequence AAGCTACCAGTTATATGGCCG (SEQ ID NO: 6). […] The next data points to the right (“6N”) correspond to polymerization of 3′-blocked nucleotides that had been heated as indicated above and were purified using 200 nM of a 6N template of sequence 5′-[…]-3′ (SEQ ID NO: 8), combined in equimolar amount with primer oligonucleotide sequence AAGCTACCAGTTATATGGCCG (SEQ ID NO: 6).
The next data points to the right correspond to polymerization of 3′-blocked nucleotides that had been heated as indicated above and were purified using 200 nM of a mixture of 4 hairpin templates, each template corresponding to one base, of respective sequences GGGGGGGGGGGGCGGCCATATAACTGGTCACTCCAGTTATATGGCCG (hairpin G) (SEQ ID NO: 9), TTTTTTTTTTTTCGGCCATAT AACTGG TCACTCCAGTTATATGGCCG (hairpin T) (SEQ ID NO: 10), CCCCCCCCCCCCCGGCCATAT AACTGG TCACTCCAGTTATATGGCCG (hairpin C) (SEQ ID NO: 11), AAAAAAAAAAAACGGCCATATAACTGGTCACTCCAGTTATATGGCCG (hairpin A) (SEQ ID NO: 12). The hairpin templates were added to the reaction at the same concentration to reach a final concentration of 200 nM of DNA. […]

Series [2] concerns 3′-OH nucleotides. As to the kind of experiment: Purification of heated 3′-blocked nucleotides with different polymerases and temperatures, then 2×26 cycle sequencing on MINISEQ (FIG. 9). Particulars: 30 minutes, hp template with 20 degenerated bases, nucleotides heated 5 hours at 55° C. The method, then: FIG. 9 is a plot of phasing and prephasing during polymerization of 3′-blocked nucleotides that were purified to remove 3′-OH nucleotides using different polymerases and different temperatures. More specifically, similarly as for Example 1, an aqueous solution of 3′-blocked nucleotides blocked with azidomethyl groups was heated for 5 hours at 55° C. so as to convert a portion of the 3′-blocked nucleotides to 3′-OH nucleotides. The resulting aqueous mixture of 3′-blocked nucleotides and 3′-OH nucleotides was purified for 30 minutes in a manner such as described with reference to FIGS. 1A-1B and 3, using an hp oligomer template with 20 degenerated bases (meaning that at each position, one of the four bases could be incorporated; since this is random, each oligomer should have a different sequence) and different polymerases and different temperatures such as described further below. The purified 3′-blocked nucleotides then were polymerized using 2×26 cycle runs on the MINISEQ® sequencing-by-synthesis instrument (Illumina, Inc., San Diego Calif.) using the PhiX library as templates. The slope adjusted prephasing and phasing were measured for the purified 3′-blocked nucleotides, as well as for heated and unpurified 3′-blocked nucleotides and for unheated 3′-blocked nucleotides.
Different polymerases were used at different temperatures to determine their effect on phasing and prephasing. More specifically, the next data points to the right (“Vent polishing 60 C”) correspond to polymerization of 3′-blocked nucleotides that had been heated as indicated above and were purified using the Deep Vent polymerase at 60° C. […] From a comparison of performance of the different polymerases, it may be understood that using the Deep Vent polymerase at 60° C. provided similar phasing and prephasing as for the lower baseline “no stress” in which the 3′-blocked nucleotides were not heated. Additionally, it may be understood that using the Taq polymerase at the experimental temperatures provided even less prephasing than for the lower baseline “no stress” in which the 3′-blocked nucleotides were not heated. Accordingly, it may be understood that the Taq polymerase removed from solution not only the 3′-OH nucleotides that were generated using heating, but also at least some of the 3′-OH nucleotides that were present even without heating. Under the particular experimental conditions in this example, the Taq polymerase appeared to provide better performance than Deep Vent, and neither Deep Vent or Taq appeared to detrimentally influence phasing.

Series [3] deals with 3′-OH nucleotides. As to the kind of experiment: Purification with Taq polymerase at different temperatures and nucleotide concentrations, then 2×26 cycle sequencing on MISEQ (FIG. 11). Particulars: 30 minutes, 0.5 mM or 1 mM nucleotides, control about 0.1%. The method, then: FIG. 11 is a plot of prephasing during polymerization of 3′-blocked nucleotides that were purified to remove 3′-OH nucleotides using different temperatures and concentrations of 3′-blocked nucleotides. Similarly as for Example 1, an aqueous solution of 3′-blocked nucleotides blocked with azidomethyl groups was heated for 5 hours at 55° C. so as to convert a portion of the 3′-blocked nucleotides to 3′-OH nucleotides. The resulting aqueous mixture of 3′-blocked nucleotides and 3′-OH nucleotides was purified for 30 minutes in a manner such as described with reference to FIGS. 1A-1B and 3, using 10× of an hp oligomer template with 20 degenerated bases (NNNNNNNNNNNNNNNNNNNN CGGCCATATAACTGGTAGCTTTTTTAAGCTACC AGTT AT ATG GCC G (SEQ ID NO. 1)), 10× of the Taq polymerase and either 0.5 mM or 1 mM of the heated 3′-blocked nucleotides, at a variety of temperatures. The purified 3′-blocked nucleotides then were polymerized using 2×26 cycle runs on the MISEQ® sequencing-by-synthesis instrument (Illumina, Inc., San Diego Calif.) using the PhiX library as templates. The normalized prephasing was measured for the purified 3′-blocked nucleotides, as well as for heated and unpurified Y-blocked nucleotides and for unheated Y-blocked nucleotides. […]

On to “5′-NNN NCGGC CAT ATA ACT GGT AGCTT-3′ (DNA NNNNCGGCCATATAACTGGTAGCTT; degenerate-base DNA template for purifying nucleotides, chemistry not given here) [4N template]”, for which, in series [1] (200 nM template), the “R1 C150 phasing weight” value is given as “about 18.5%” and the “R1 C150 prephasing weight” value was “about 21%”.

In the case of “5′-NNNNNNNNNNNNNNNNNNNNCGGCCATATAACTGGTAGCTT-3′ [20N template]”, the “R1 C150 phasing weight” value is “about 12%” in series [1] (50 nM template), “about 18.5%” in series [1] (200 nM template), “about 19%” in series [1] (300 nM template) and “about 23%” in series [1] (500 nM template). In addition, the “R1 C150 prephasing weight” value is reported as “about 24%” in series [1] (50 nM template), “about 16.5%” in series [1] (200 nM template), “about 13%” in series [1] (300 nM template) and “about 17%” in series [1] (500 nM template).

Regarding “5′-NNNNNNCGGCCATATAACTGGTAGCTT-3′ (degenerate-base DNA template, chemistry not given here) [6N template]”, in series [1] (200 nM template), the “R1 C150 phasing weight” value is recorded as “about 15%” and the “R1 C150 prephasing weight” value is reported as “about 17.5%”.

On to “Taq polymerase: Thermus aquaticus DNA polymerase I, thermostable polishing polymerase”, for which the normalized phasing entry in series [2] (purified at 37° C.) is recorded as “about 0.13%”; in series [2] (purified at 45° C.), “about 0.12%”; in series [2] (purified at 60° C.) it was “about 0.12%”. Moreover, the normalized prephasing entry in series [2] (purified at 37° C.) is “about 0.09%”; in series [2] (purified at 45° C.), “about 0.08%”; in series [2] (purified at 60° C.) it was “about 0.09%”; in series [3] (purified at 53° C.), “significantly lower than the control”; in series [3] (purified at 60° C.) it was “significantly lower than the control”.

B1: NNNNNNNNNNNNNNNNNNNN CGGCCATATAACTGGTAGCTTTTTTAAGCTACC AGTT AT ATG GCC G (nucleic acid)
DNA: NNNNNNNNNNNNNNNNNNNNCGGCCATATAACTGGTAGCTTTTTTAAGCTACCAGTTATATGGCCG
modifications: hairpin template with 20 degenerate bases, chemistry not given here
In the case of B1, in series [1] (200 nM template), the “R1 C150 phasing weight” value is “about 12%” and the “R1 C150 prephasing weight” value is given as “about 16%”.
